Laboratory results: the NIST ThermoML archive (doi:10.1016/j.jct.2008.03.011)
Numbers after ± are expanded uncertainties.

Tests used:
[1] = xn = mol fraction of the nth substance listed; conditions: 101 kPa, Liquid
[2] = refractive index (Na D-line) (dimensionless); xn = mol fraction of the nth substance listed; conditions: 101 kPa, Liquid

CCCCCCCC[n+]1ccn(C)c1.F[P-](F)(F)(F)(F)F [1-octyl-3-methylimidazolium hexafluorophosphate] + CCC(C)=O
Conditions	mass density, 293.15 K [kg/m3]	mass density, 298.15 K [kg/m3]	mass density, 303.15 K [kg/m3]	refractive index, 293.15 K	refractive index, 298.15 K	refractive index, 303.15 K	speed of sound, 293.15 K [m/s]	speed of sound, 298.15 K [m/s]	speed of sound, 303.15 K [m/s]
[1], x1 = 0.0475	869.8 ± 0.6	864.3 ± 0.6	859.6 ± 0.7	–	–	–	1243 ± 8	1224 ± 8	1195 ± 7
[1], x1 = 0.0972	923.7 ± 0.6	918.9 ± 0.6	914.1 ± 0.6	–	–	–	1268 ± 8	1249 ± 8	1229 ± 8
[1], x1 = 0.1918	1002 ± 0.5	997.6 ± 0.5	993.2 ± 0.5	–	–	–	1303 ± 8	1286 ± 8	1269 ± 8
[1], x1 = 0.2947	1063.1 ± 0.6	1058.8 ± 0.6	1054.6 ± 0.6	–	–	–	1331 ± 8	1315 ± 8	1300 ± 8
[1], x1 = 0.3949	1107.9 ± 0.7	1103.7 ± 0.7	1099.5 ± 0.7	–	–	–	1352 ± 8	1337 ± 8	1323 ± 8
[1], x1 = 0.4983	1143.6 ± 0.7	1139.4 ± 0.7	1135.3 ± 0.7	–	–	–	1368 ± 8	1354 ± 8	1340 ± 8
[1], x1 = 0.5752	1164.9 ± 0.8	1160.9 ± 0.8	1156.9 ± 0.8	–	–	–	1378 ± 8	1364 ± 8	1351 ± 8
[1], x1 = 0.6815	1189.5 ± 0.9	1185.5 ± 0.9	1181.5 ± 0.8	–	–	–	1389 ± 8	1376 ± 8	1363 ± 8
[1], x1 = 0.7683	1205.8 ± 0.9	1202 ± 0.9	1198.3 ± 0.9	–	–	–	1399 ± 8	1386 ± 8	1372 ± 8
[1], x1 = 0.8315	1216.4 ± 0.9	1212.8 ± 0.9	1209.1 ± 0.9	–	–	–	1406 ± 8	1392 ± 8	1379 ± 8
[1], x1 = 0.9315	1230.9 ± 1	1227.5 ± 1	1223.9 ± 1	–	–	–	1425 ± 9	1410 ± 8	1395 ± 8
[1], x1 = 1	1239.6 ± 1.1	1235.7 ± 1	1231.9 ± 1	–	–	–	1424 ± 9	1408 ± 8	1393 ± 8
[2], x1 = 0.0475	–	–	–	1.38881 ± 0.0012	1.38663 ± 0.0012	1.38505 ± 0.0012	–	–	–
[2], x1 = 0.0972	–	–	–	1.39567 ± 0.0012	1.39445 ± 0.0012	1.39284 ± 0.0012	–	–	–
[2], x1 = 0.1918	–	–	–	1.40468 ± 0.0013	1.40289 ± 0.0013	1.40124 ± 0.0013	–	–	–
[2], x1 = 0.2947	–	–	–	1.41058 ± 0.0013	1.40877 ± 0.0013	1.40709 ± 0.0013	–	–	–
[2], x1 = 0.3949	–	–	–	1.41468 ± 0.0013	1.41302 ± 0.0013	1.41133 ± 0.0013	–	–	–
[2], x1 = 0.4983	–	–	–	1.41774 ± 0.0013	1.41614 ± 0.0013	1.41466 ± 0.0013	–	–	–
[2], x1 = 0.5752	–	–	–	1.41934 ± 0.0013	1.41779 ± 0.0013	1.41645 ± 0.0013	–	–	–
[2], x1 = 0.6815	–	–	–	1.42126 ± 0.0013	1.41979 ± 0.0013	1.41825 ± 0.0013	–	–	–
[2], x1 = 0.7683	–	–	–	1.42239 ± 0.0013	1.42095 ± 0.0013	1.41949 ± 0.0013	–	–	–
[2], x1 = 0.8315	–	–	–	1.42355 ± 0.0013	1.42198 ± 0.0013	1.42051 ± 0.0013	–	–	–
[2], x1 = 0.9315	–	–	–	1.42474 ± 0.0013	1.42337 ± 0.0013	1.42199 ± 0.0013	–	–	–
[2], x1 = 1	–	–	–	1.4244 ± 0.0013	1.42302 ± 0.0013	1.42165 ± 0.0013	–	–	–

CCC(C)=O [butanone] + CCCCCCCC[n+]1ccn(C)c1.F[P-](F)(F)(F)(F)F
x2 = 0
Conditions	mass density, 293.15 K [kg/m3]	mass density, 298.15 K [kg/m3]	mass density, 303.15 K [kg/m3]	refractive index, 293.15 K	refractive index, 298.15 K	refractive index, 303.15 K	speed of sound, 293.15 K [m/s]	speed of sound, 298.15 K [m/s]	speed of sound, 303.15 K [m/s]
[1]	805.6 ± 0.7	799.7 ± 0.7	794.9 ± 0.8	–	–	–	1212 ± 8	1192 ± 7	1163 ± 7
[2]	–	–	–	1.37879 ± 0.0012	1.37618 ± 0.0012	1.37355 ± 0.0012	–	–	–

C1CCCCC1 [cyclohexane] + CCC(C)=O
x1 = 1
Conditions	refractive index, 293.15 K	refractive index, 298.15 K	refractive index, 303.15 K	speed of sound, 293.15 K [m/s]	speed of sound, 298.15 K [m/s]	speed of sound, 303.15 K [m/s]
[1], Sing-around technique in a fixed-path interferometer	–	–	–	1279 ± 2	1256 ± 2	1219 ± 2
[2], Standard Abbe refractometry	1.42633 ± 0.00031	1.42354 ± 0.00031	1.42073 ± 0.00031	–	–	–

[1], x1 = 1
Conditions	mass density [kg/m3]
293.15 K	778.4 ± 0.5
298.15 K	773.8 ± 0.5
303.15 K	769 ± 0.5
